Measurements: EP0007880B1, “Medicines containing as active ingredients compounds of the benzene-sulfone type; compounds of this type and process for their preparation” (CHOAY S.A., priority 1978, dated 1980)

Assays:
[1] = tested on: rats Wistar mâles; assay: Normolipemic and/or hypoglycemic activity in Triton W.R.-induced hyperlipidemia in fasted rats; type: in vivo; parameters: Cholestérol Total / Cholestérol Estérifié / Trigly-cérides: unit not given here; conditions: fasted rats given Triton W.R. 200mg/kg i.v.; for Cholestérol Estérifié / Cholestérol Total / Glucose / Lipides totaux / Trigly-cérides: product given simultaneously, i.p. 100 mg/kg or oral 500 mg/kg (route not stated per product), blood sampled six hours later; for Cholestérol Rapport E/T: ratio esterified/total cholesterol, product i.p. 100 mg/kg or oral 500 mg/kg, six hours later
Experimental: Les essais sont réalisés sur des groupes de 5 rats Wistar mâles (150 à 175g). Les produits testés sont administrés soit par voie intrapéritonéale, à raison de 100 mg/kg dans du soluté isotonique, soit par voie orale, en solution aqueuse à 3% de gomme adragante (1 ml/100g de poids corporel) en quantité correspondant à 500 mg/kg.
Pour ces essais, on provoque une hyperlipidémie chez les animaux au moyen du produit commercialisé par la Société ROHM et HAAS sous le nom de Triton W.R. Chez le rat à jeun, l'injection intraveineuse de Triton entraine une hyperlipidémie particulièrement nette pour les triglycérides .et de façon moindre pour les lipides totaux.
Cette hyperlipidémie est combattue par l'action des substances actives selon l'invention.
Le protocole de l'essai est le suivant. Les rats sont mis à jeûner pendant 18 heures. Le Triton W.R. est administré par voie intraveineuse en solution aqueuse à 10% à raison de 200mg/kg.
Simultanément, les rats reçoivent les produits à tester. Six heures plus tard, on effectue les dosages de façon traditionnelle sur des échantillons sanguins.

[2] = tested on: souris Swiss; assay: Acute toxicity in mice (lethal dose 50, Behrens and Karber); type: in vivo; conditions: dose 1,5g/kg, voie intrapéritonéale; mice observed 8 days

Row | Structure (SMILES) | Cholestérol Estérifié [1] | Cholestérol Total [1] | Glucose [1] | Lipides totaux [1] | Trigly-cérides [1] | Cholestérol Rapport E/T [1] | animaux encore en vie [2]
1 | CC(C)(O)CS(=O)(=O)c1ccccc1 [Exemple 19] | 1,09 | 2,04 | 0,78 g/l | 7,62 g/l | 2,84 | 55,6 | 
2 | CCC(C)(O)CS(=O)(=O)c1ccccc1 (stereo not shown) [Exemple 20] | 1,64 | 2,20 | 0,84 g/l | 7,36 g/l | 2,07 | 76,8 | 
3 | O=S(=O)(CC1(O)CCCCC1)c1ccccc1 [Exemple 21] | 2,06 | 3,09 | 0,89 g/l | 9,56 g/l | 2,23 | 66,0 | 
4 | O=S(=O)(CC(O)c1ccccc1)c1ccccc1 (stereo not shown) [Exemple 22] | 1,89 | 2,28 | 1,18 g/l | 8,50 g/l | 3,95 | 82,4 | 
5 | O=S(=O)(CC(O)c1ccc(Cl)cc1)c1ccccc1 (stereo not shown) [Exemple 23] |  |  |  |  |  |  | 5 animaux sur 5 sont encore en vie
6 | O=S(=O)(CC(O)c1ccc(F)cc1)c1ccccc1 (stereo not shown) [Exemple 24] | 0,98 | 1,48 | 1,12 g/l | 15,30 g/l | 1,80 | 69,40 | 
7 | CC(C(O)(c1ccccc1)c1ccccc1)S(=O)(=O)c1ccccc1 (stereo not shown) [Exemple 27] |  |  |  |  |  |  | 5 animaux sur 5 sont encore en vie
8 | O=S(=O)(CC(O)c1ccccc1)c1ccc(F)cc1 (stereo not shown) [Exemple 28] | 0,66 | 1,24 | 1,22 g/l | 6,0 g/l | 4,31 | 54,4 | 
9 | O=S(=O)(CC1(O)CCCCC1)c1ccc(F)cc1 [Exemple 32] | 0,73 | 1,14 | 0,92 g/l | 10,99 g/l | 4,00 | 65,17 | 
10 | O=S(=O)(CCCO)c1ccccc1 [Exemple 40] | 0,99 | 1,56 | 0,93 g/l | 3,76 g/l |  | 61,2 | 
11 | CC(C)(Oc1ccc(Cl)cc1)C(=O)OCCCS(=O)(=O)c1ccccc1 [Exemple 47] | 0,90 | 1,52 | 0,97 g/l | 10,28 g/l | 4,56 | 59,99 | 
